From publication PMC11210663 (Emerging Infectious Diseases, 2024)
“Also recorded” adds a separate entry of the source.

Legend:
[1] = test system: influenza A(H1N1)pdm09 virus isolates with NA-I223V + S247N; type: cell-based
[2] = test system: influenza A(H1N1)pdm09 virus isolates with NA-S247N; type: cell-based
[3] = test system: influenza A(H1N1)pdm09 virus isolates with NA-I223V; type: cell-based
[4] = test system: influenza A(H1N1)pdm09 virus isolates with NA-I223V; type: biochemical
[5] = test system: influenza A(H1N1)pdm09 virus isolates with NA-I223V + S247N; type: biochemical
[6] = test system: influenza A(H1N1)pdm09 virus isolates with NA-S247N; type: biochemical
[7] = read-out: NA inhibitors IC50, average ± SD

For `O=C1c2c(O)c(=O)ccn2N([C@@H]2c3ccccc3SCc3c2ccc(F)c3F)[C@@H]2COCCN12` [baloxavir], the “susceptibility to baloxavir” value [1] was “retained susceptibility; also recorded: susceptible”, the “susceptibility to baloxavir” value [2] was “susceptible” and the “susceptibility to baloxavir” value [3] was “susceptible”.
`CCC(CC)[C@H](NC(C)=O)[C@@H]1[C@H](O)[C@@H](C(=O)O)C[C@H]1N=C(N)N` [Peramivir, peramivir] was tested, and the “NA inhibitors IC50 fold change” value [4] was 0.08 ± 0.01 (1) fold, the IC50 [4, 7] was 0.08 nM and the “NA inhibitors IC50 fold change” value [5] was 0.29 ± 0.01 (4) fold. For the same compound, the IC50 [5, 7] was 0.29 nM, the “NA inhibitors IC50 fold change” value [6] was 0.19 ± 0.01 (3) fold and the IC50 [6, 7] was 0.19 nM.
With `CCOC(=O)C1=C[C@@H](OC(CC)CC)[C@H](NC(C)=O)[C@@H](N)C1` [Oseltamivir, oseltamivir] the “susceptibility to antiviral drugs” value [5] was “reduced susceptibility”.
